Measurements from patent US6464991B1, “Oat lipid based surfactants and derivatives and process for preparing same” (Finetex, Inc., priority 1999, dated 2002).

Experiments:
Skin Tissue Model = test: Dermal irritation, Mat-Tek in-vitro Skin Tissue Model (non-animal); assay type: cell-based
Description: (§1) These studies were done using non-animal test protocols. Skin Tissue Model and Ocular Tissue Model by Mat-Tek Corporation in-vitro systems were used for dermal and ocular irritation studies.

Ocular Tissue Model = test: Ocular irritation, Mat-Tek in-vitro Ocular Tissue Model (non-animal); assay type: cell-based
Description: as §1

“nonylphenol 10 EO Ethoxylate [Positive Control]” was tested, and the “Dermal Tox Irritation Ratings/Classifications” value (Skin Tissue Model) was “Moderate to mild range” and the “Ocular Tox Irritation Ratings/Classifications” value (Ocular Tissue Model) was “Moderate to mild range”.
